Measured values reported in PMC5282883, “Droplet-based microfluidic high-throughput screening of heterologous enzymes secreted by the yeast Yarrowia lipolytica” (Microbial Cell Factories, 2017).

Assays:
Assay in all cases: fluorogenic hydrolysis assay, crude supernatant
Assay type in all cases: biochemical
Conditions in all cases: 150 µM substrate, 50 mM acetate buffer pH 4.5, 25 °C
endoglucanase A = molecular target: T1, endoglucanase A (Aspergillus niger, UniProt A2R322)
T1 construct: gene eglA; codon-optimised gene secreted by Yarrowia lipolytica strain JMY4343; crude supernatant; 26 kDa on SDS-PAGE

endo-β-1,4-xylanase B = molecular target: T2, endo-β-1,4-xylanase B (Aspergillus niger, UniProt A2Q7I0)
T2 construct: gene xlnB; codon-optimised gene secreted by Yarrowia lipolytica strain JMY4346; crude supernatant; 22 kDa on SDS-PAGE

endo-β-1,4-xylanase C = molecular target: T3, endo-β-1,4-xylanase C (Aspergillus niger, UniProt A2QFV7)
T3 construct: gene xlnC; codon-optimised gene secreted by Yarrowia lipolytica strain JMY4510; crude supernatant

T1 sequence (A2R322 17-239): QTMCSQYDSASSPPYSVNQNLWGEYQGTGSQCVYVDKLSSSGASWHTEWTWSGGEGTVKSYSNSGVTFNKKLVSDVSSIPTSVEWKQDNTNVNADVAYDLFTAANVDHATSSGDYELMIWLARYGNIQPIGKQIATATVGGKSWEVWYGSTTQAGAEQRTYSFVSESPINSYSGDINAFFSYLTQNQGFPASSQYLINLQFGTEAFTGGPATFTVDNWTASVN
T2 sequence (A2Q7I0 19-225): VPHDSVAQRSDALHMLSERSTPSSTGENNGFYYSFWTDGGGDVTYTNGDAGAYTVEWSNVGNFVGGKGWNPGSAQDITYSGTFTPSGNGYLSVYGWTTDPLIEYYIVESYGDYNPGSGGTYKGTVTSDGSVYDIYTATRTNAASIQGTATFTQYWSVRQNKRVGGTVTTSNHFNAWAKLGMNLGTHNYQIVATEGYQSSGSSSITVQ

| Compound | fluorogenic hydrolysis assay, crude supernatant (endoglucanase A) | fluorogenic hydrolysis assay, crude supernatant (endo-β-1,4-xylanase B) | fluorogenic hydrolysis assay, crude supernatant (endo-β-1,4-xylanase C) |
| --- | --- | --- | --- |
| O=c1cc(CS(=O)(=O)O)c2cc(F)c(O[C@@H]3O[C@H](CO)[C@@H](O[C@@H]4O[C@H](CO)[C@@H](O)[C@H](O)[C@H]4O)[C@H](O)[C@H]3O)c(F)c2o1 [β-D-cellobioside-6,8-difluoro-7-hydroxycoumarin-4-methansulfonate] | JMY4343 (egla) displayed a low activity with this substrate |  |  |
| O=c1cc(CS(=O)(=O)O)c2cc(F)c(O[C@@H]3OC[C@@H](O[C@@H]4OC[C@@H](O)[C@H](O)[C@H]4O)[C@H](O)[C@H]3O)c(F)c2o1 [β-D-xylobioside-6,8-difluoro-7-hydroxycoumarin-4-methansulfonate] |  | The JMY4346 (xlnb) and JMY4510 (xlnc) strains exhibited similar levels of endo-β-1,4-xylanase activity | The JMY4346 (xlnb) and JMY4510 (xlnc) strains exhibited similar levels of endo-β-1,4-xylanase activity |
